# Assay results: patent US5521293A (Lever Brothers Company, Division of Conopco, Inc., priority 1995, dated 1996)
# Key:
# Type in all cases: physicochemical
# [1] = Krafft point of aqueous dispersion of aldonamide; settings: for Krafft Point (1.0%): 1.0% in water by weight; for Krafft Point (0.1%): 0.1% in water by weight
# Protocol: The temperature at and above which surfactants begin to form micelles instead of precipitates is referred to as the Krafft point (Tk) and at this temperature the solubility of a surfactant becomes equal to its CMC (numerical value at which micelles are formed).
# The Krafft point was measured by preparing 650 ml of a 0.1% or 1.0% dispersion of aldonamide in water by weight. If the surfactant was soluble at room temperature, the solution was slowly cooled to 0° C. […] (less than zero). If it precipitated out of solution, the temperature at which precipitation occurs was taken as the Krafft point.
# If the surfactant was insoluble at :room temperature, the dispersion was slowly heated until the solution became homogeneous. It was then slowly cooled until precipitation occurred. The temperature at which the surfactant precipitates out of solution upon cooling was taken as the Krafft point.
# Ross-Miles foam height [2] = settings: 0.1% aldonamide, 40° C. (or about 5°-10° C. above Krafft point if not soluble), 0 ppm hardness; for Foam Height Final: after 10 minutes
# Protocol: (§1) Since most of the foaming data on surfactants is typically obtained by the Ross-Miles Foam Height Assay (Ross, J. and Miles, G. D. Am Soc. for Testing Material Method D1173-63 Philadelphia, Pa. (1953); Oil & Soap (1958) 62:1260) the foaming ability of these surfactants were acquired using this method.
# (§2) In the Ross-Miles method, 200 mL of a surfactant solution contained in a pipette of specified dimensions with a 2.9-mm-i.d. orifice is allowed to fall 90 cm onto 50 mL of the same solution contained in a cylindrical vessel maintained at a given temperature by means of a water jacket. The height of the foam produced in the cylindrical vessel is read immediately after all the solution has run out of the pipette and then again after a given amount of time.
# (§3) Using this method, the foam production (initial foam height in mm) and foam stability (final foam height after 10 minutes in mm) were measured at 0.1% aldonamide concentration, 40° C. and 0 ppm (parts per million) hardness. Aldonamides that were not soluble at 40° C. were measured at about 5°-10° C. above their Krafft points.
# Ross-Miles foam height [3] = experiment: Ross-Miles foam height; design: key: X: low water solubility. foam height cannot be measured; settings: Examples 82-83; for Foam Height Final (symbol): after 10 minutes
# Protocol: as §1, §2, §3
Compound,Krafft Point (1.0%) [1],Krafft Point (0.1%) [1],other results
octyl/decyloxypropyl D-lactobionamide [VV],< 0 °C,–,–
dodecyl to pentadecyloxypropyl D-lactobionamide [YY],< 0 °C,–,–
"CCCCCCCCCCCCOC(=O)CNC(=O)[C@H](O)[C@@H](O)[C@H](O[C@@H]1O[C@H](CO)[C@H](O)[C@H](O)[C@H]1O)[C@H](O)CO [AAA, N-D-lactobionyl dodecyl glycinate]",< 0 °C,–,–
C12 -C15 Oxypropyl D-Glucoheptonamide [LL],–,68 °C,Foam Height Final (Ross-Miles foam height [2]): 97 mm; Foam Height Initial (Ross-Miles foam height [2]): 239 mm
"CCCCCCCCCCCCCCNC(=O)[C@H](O)[C@@H](O)[C@H](O[C@@H]1O[C@H](CO)[C@H](O)[C@H](O)[C@H]1O)[C@H](O)CO [QQ, C14 D-Lactobionamide]",18 °C,–,–
"CCCCCCCCCCCCNC(=O)[C@H](O)[C@@H](O)[C@H](O[C@@H]1O[C@H](CO)[C@H](O)[C@H](O)[C@H]1O)[C@H](O)CO [OO, C12 D-Lactobionamide]",38 °C,–,–
soyaaminopropyl D-gluconamide [BB],–,< 18 °C,–
oleylaminopropyl D-lactobionamide [DDD],< 0 °C,–,Foam Height Initial (Ross-Miles foam height [2]): 169 mm
"CCCCCCCCCCCCCCOCCCNC(=O)[C@H](O)[C@@H](O)[C@H](O[C@@H]1O[C@H](CO)[C@H](O)[C@H](O)[C@H]1O)[C@H](O)CO [ZZ, tetradecyloxypropyl D-lactobionamide]",< 0 °C,–,–
Iso C13 Oxypropylaminopropyl D-Gluconamide [DD],–,< 0 °C,Foam Height Final (Ross-Miles foam height [2]): 178 mm
cocoaminopropyl D-gluconamide [AA],–,18 °C,–
"CCCCCCCCCCCCCCOCCCNC(=O)[C@H](O)[C@@H](O)[C@H](O)[C@H](O)CO [V, C14 Oxypropyl D-Gluconamide]",–,53 °C,–
"CCCCCCCCCCCCOC(=O)CNC(=O)[C@H](O)[C@@H](O)[C@H](O)[C@H](O)CO [W, N-D-gluconyl dodecyl glycinate]",–,63 °C,–
"CCCCCCCCCCCCOCCCNC(=O)[C@H](O)[C@@H](O)[C@H](O[C@@H]1O[C@H](CO)[C@H](O)[C@H](O)[C@H]1O)[C@H](O)CO [WW, dodecyloxypropyl D-lactobionamide]",< 0 °C,–,–
"CCCCCCCCCCCCOC(=O)CCNC(=O)[C@H](O)[C@@H](O)[C@H](O[C@@H]1O[C@H](CO)[C@H](O)[C@H](O)[C@H]1O)[C@H](O)CO [BBB, N-D-lactobionyl dodecyl β-alaninate]",< 0 °C,–,–
"CCCCC(CC)COCCCNC(=O)[C@H](O)[C@@H](O)[C@H](O)[C@H](O)CO (stereo partly drawn) [P, Ethylhexyloxypropyl D-Gluconamide]",–,< 0 °C,–
"CCCCCCCCCCCCOCCCNC(=O)[C@H](O)[C@@H](O)[C@H](O)[C@H](O)CO [Entry S, C12 Oxypropyl D-Gluconamide]",–,61 °C,–
Iso C10 Oxypropyl D-Gluconamide,–,< 0 °C,Foam Height Final (Ross-Miles foam height [2]): 206 mm; Foam Height Initial (Ross-Miles foam height [2]): 213 mm
"CCCCCCCCCCCCNC(=O)[C@H](O)[C@H](O)[C@H](O)CO [A, dodecyl D-ribonamide]",–,54 °C,–
"CCCCCCCCCCCCNC(=O)C(O)C(O)C(O)C(O)C(O)C(O)CO [FF, C12 D-Glucooctonamide]",–,86 °C,Foam Height Final (symbol) (Ross-Miles foam height [3]): X; Foam Height Initial (symbol) (Ross-Miles foam height [3]): X
Iso C13 Oxypropyl D-Gluconamide [T],–,< 15 °C,–
"CCCCCCCCCCCCNC(=O)[C@@H](O)[C@H](O)[C@@H](O)[C@@H](O)CO [I, C12 L-Gluconamide]",–,91 °C,Foam Height Final (symbol) (Ross-Miles foam height [3]): X; Foam Height Initial (symbol) (Ross-Miles foam height [3]): X
"CCCCCCCCCCCNC(=O)[C@H](O)[C@@H](O)[C@H](O[C@@H]1O[C@H](CO)[C@H](O)[C@H](O)[C@H]1O)[C@H](O)CO [NN, C11 D-Lactobionamide]",61 °C,–,–

Compound,Krafft Point (1.0%) [1],Krafft Point (0.1%) [1],other results
"CCCCCCCCCCCNC(=O)[C@H](O)[C@@H](O)[C@H](O)[C@H](O)CO [G, C11 D-Gluconamide]",–,87 °C,Foam Height Final (symbol) (Ross-Miles foam height [3]): X; Foam Height Initial (symbol) (Ross-Miles foam height [3]): X
"CCCCCCCCCCCCOCCCNC(=O)[C@H](O)[C@@H](O)[C@H](O[C@H]1O[C@H](CO)[C@@H](O)[C@H](O)[C@H]1O)[C@H](O)CO [XX, dodecyloxypropyl D-maltobionamide]",< 0 °C,–,–
"CCCCCCCCCCCCCCNC(=O)[C@H](O)[C@@H](O)[C@H](O[C@H]1O[C@H](CO)[C@@H](O)[C@H](O)[C@H]1O)[C@H](O)CO [RR, C14 D-Maltobionamide]",46 °C,–,–
cocoaminopropyl D-lactobionamide [CCC],< 0 °C,–,–
"CCCCCCCCCCNC(=O)[C@H](O)[C@@H](O)[C@H](O)[C@H](O)CO [F, C10 D-Gluconamide]",–,75 °C,–
dodecyl to pentadecyloxypropyl D-gluconamide,–,58 °C,–
octyl/decyloxypropyl D-ribonamide,–,10 °C,–
"CCCCCCCCCCCCCNC(=O)[C@H](O)[C@@H](O)[C@H](O[C@@H]1O[C@H](CO)[C@H](O)[C@H](O)[C@H]1O)[C@H](O)CO [PP, C13 D-Lactobionamide]",70 °C,–,–
"CCCCCCCCCNC(=O)[C@H](O)[C@@H](O)[C@H](O[C@@H]1O[C@H](CO)[C@H](O)[C@H](O)[C@H]1O)[C@H](O)CO [MM, nonyl D-lactobionamide]",42 °C,–,–
dodecyl to pentadecyloxypropylaminopropyl D-gluconamide [EE],–,< 0 °C,–
"CCCCCCCCCNC(=O)[C@H](O)[C@@H](O)[C@H](O)[C@H](O)CO [E, C9 D-Gluconamide]",–,53 °C,–
"CCCCCCCCCCCCOCCOCCOC(=O)CNC(=O)[C@H](O)[C@@H](O)[C@H](O)[C@H](O)CO [Z, N-D-Gluconyl Dodecyldi(oxyethyl) Glycinate]",–,< 0 °C,–
"CCCCCCCCCCCC(=O)OCCNC(=O)[C@H](O)[C@@H](O)[C@H](O)[C@H](O)CO [X, N-D-gluconyl dodecyl ester of ethanolamine]",–,63 °C,–
"CCCCCCCCCCCCOC(=O)C(C)NC(=O)[C@H](O)[C@@H](O)[C@H](O)[C@H](O)CO (mixture of isomers) [Y, N-D-Gluconyl Dodecyl DL-Alaninate]",–,53 °C,–
"CCCCCCCCCCCCNC(=O)[C@H](O)[C@H](O)[C@@H](O)[C@H](O)[C@H](O)CO [HH, C12 D-Glucoheptonamide]",–,91 °C,Foam Height Final (symbol) (Ross-Miles foam height [3]): X; Foam Height Initial (symbol) (Ross-Miles foam height [3]): X
C8 /C10 Oxypropyl D-Glucoheptonamide [II],–,60 °C,Foam Height Final (Ross-Miles foam height [2]): 90 mm; Foam Height Initial (Ross-Miles foam height [2]): 221 mm
dodecyl to pentadecyloxypropylaminopropyl D-lactobionamide [EEE],< 0 °C,–,–
"CCCCCCCCCCCCCCCCNC(=O)[C@H](O)[C@@H](O)[C@H](O[C@@H]1O[C@H](CO)[C@H](O)[C@H](O)[C@H]1O)[C@H](O)CO [TT, C16 D-Lactobionamide]",64 °C,–,–
"CCCCCCCC/C=C\CCCCCCCCNCCCNC(=O)[C@H](O)[C@@H](O)[C@H](O)[C@H](O)CO [CC, oleylaminopropyl D-gluconamide]",–,< 0 °C,–
"CCCCCCCCNC(=O)[C@H](O)[C@@H](O)[C@H](O)[C@H](O)CO [D, C8 D-Gluconamide]",–,12 °C,–
"CCCCCCCCCCCCOCCCNC(=O)[C@H](O)[C@H](O)[C@@H](O)[C@H](O)[C@H](O)CO [KK, C12 Oxypropyl D-Glucoheptonamide]",–,73 °C,–
"CCCCCCCNC(=O)[C@H](O)[C@@H](O)[C@H](O)[C@H](O)CO [C, C7 D-Gluconamide]",–,< 0 °C,–
